The results in this text go back to ChEMBL document CHEMBL3098026, “Synthesis and SAR of novel isoxazoles as potent c-jun N-terminal kinase (JNK) inhibitors” (Bioorg Med Chem Lett, 2014).

Series [1] in a line: Stability in human microsomes. The series is classed as ADME, Microsome.
Another series has as its system Rattus norvegicus. Nature of the series: Oral bioavailability in Sprague-Dawley rat at 2 mg/kg. Format: ADME, organism-based. The following applies: in vivo.
Series [2] can be described thus: Cmax in Sprague-Dawley rat at 2 mg/kg, po. Format: ADME, organism-based. More on the design: dose 2 mg/kg, route oral. Particulars: in vivo.
Series [3] in a line: AUC in Sprague-Dawley rat at 2 mg/kg, po. Format: ADME, organism-based. On the set-up: dose 2 mg/kg, route oral. Particulars: plasma.
A short description of series [4]: Volume of distribution in Sprague-Dawley rat at 1 mg/kg, iv and 2 mg/kg, po. The following applies: in vivo. Format: ADME, organism-based.
The nature of series [5]: Half life in Sprague-Dawley rat at 1 mg/kg, iv and 2 mg/kg, po. Format: ADME, organism-based. Particulars: in vivo.
Series [6] is described as follows: Plasma clearance in Sprague-Dawley rat at 1 mg/kg, iv and 2 mg/kg, po. Format: ADME, organism-based.

As to `Oc1onc(-c2ccnc(Nc3ccc(N4CCOCC4)cc3)c2)c1-c1ccc(F)cc1`, the Stability result in series [1] is given as “Unstable”.

By Cmax is commonly meant the maximum level reached in the sampled fluid or tissue. A word on the AUC: it is concentration integrated over time. The low end stands for low exposure, the high end for high exposure. As a reminder, the half-life is how long it takes for the measured level to halve. Read a high half-life as slow decline. `Cc1ncn(-c2ccc(Nc3cc(-c4nocc4-c4cnn(C)c4)ccn3)cc2)n1`: in the series on Rattus norvegicus, the F amounted to 37%. For the same compound, the Cmax in series [2] was 1500 nM. The AUC in series [3] came out at 5 µM·h. For the same compound, in series [4], the Vd was found to be 0.4 L/kg. In addition, the half-life in series [5] is 1.5 h. The clearance in series [6] amounted to 6 mL/min/kg.

`Cc1ncn(-c2ccc(Nc3cc(-c4nocc4-c4cn[nH]c4C)ccn3)cc2)n1` displayed a F in the series on Rattus norvegicus of 12%. Further, the peak concentration (Cmax) in series [2] was 300 nM. For the same compound, in series [3], the area under the curve (AUC) was determined as 0.7 µM·h. Besides, the Vd in series [4] amounted to 0.4 L/kg. This compound gave a half-life in series [5] of 1.8 h. In series [6], the clearance was 13 mL/min/kg.
